Blank lines part the entries; values can stand above or below the compound they belong to.
Assays:
[1] = test system: Epstein-Barr virus (EBV) Akata strain; test: EBV primary assay, DNA hybridization in induced Akata cells; format: cell-based
Method: (§1) EBV Akata strain was assayed in Akata cells (John Sixbey, LSU) latently infected with EBV (and therefore oncogenic). Cells were maintained in RPMI 1640, (Mediatech) with 10% FBS (Hyclone), L-glutamine, penicillin and gentamicin.
For Primary assay, Akata cells latently infected with EBV were induced to undergo lytic infection by addition of 50μg/ml of a goat anti-human IgG [16] and a dose-range of verdinexor (0.032 to 100 μM) was added for 72hr. Denaturation buffer was added and an aliquot aspirated through an Immobilon nylon membrane (Millipore, Bedford, MA). Dried membranes were equilibrated in DIG Easy Hyb solution (Roche Diagnostics, Indianapolis, IN) at 56°C. Specific DIG-labeled probes for EBV (S1 Table). (Roche Diagnostics). Membranes with EBV DNA were hybridized overnight followed by washes in 0.2× SSC and 0.1× SSC both with 0.1% SDS. Detection of specifically bound DIG probe was performed with anti-DIG antibody (Roche Diagnostics). An image of the photographic film was captured and quantified with QuantityOne software (Bio-Rad), and the EC50 were interpolated.

[2] = test system: Epstein-Barr virus (EBV) Akata strain; test: EBV secondary assay, qPCR of viral DNA in induced Akata cells; format: cell-based
Method: as §1
Secondary assay for EBV were performed in Akata cells that were induced to undergo a lytic infection with 50μg/ml of a goat anti-human IgG antibody by methods we reported previously. Experimental compounds were diluted in round bottom 96-well plates to yield concentrations ranging from 0.0032–100μM. Akata cells were added to the plates at a concentration of 4×10^4 cells per well and […]. Assay plates were incubated for seven days at 37°C. For all assays, the replication of the virus was assessed by the quantification of viral DNA. For primer sequences, please see S1 Table. EBV DNA was purified according to manufacturer’s instructions (Wizard SV 96 Genomic DNA Purification System). The purified DNA was then subjected to qPCR that amplified a fragment corresponding to nucleotides 96802–97234 in the EBV genome (AJ507799). Plasmid pMP218 containing a DNA sequences corresponding to nucleotides 14120–14182 (AF148805.2) was used to provide absolute quantification of viral DNA. Compound concentrations sufficient to reduce genome copy number by 50% were calculated from experimental data.

KSHV strain BCBL-1 = test: KSHV qPCR of viral DNA in PMA-induced BCBL-1 cells; format: cell-based, Kaposi's sarcoma-associated herpesvirus; conditions: Human gammaherpesvirus 8, BCBL1, KSHV
Method: KSHV strain BCBL-1 was obtained as latently infected BCBL-1 cells through the NIH AIDS Research and Reference Reagent Program. BCBL-1 cells were maintained in growth medium consisting of RPMI 1640 supplemented with 10% FBS, penicillin, gentamicin, and l-glutamine.
To quantify virus, compound was diluted from 0.008–100μM and added to BCBL-1 cells induced to undergo a lytic infection by the addition of 100ng/ml phorbol 12-myristate 13-acetate (PMA) (Promega). After 7d, total DNA was prepared, and viral DNA was quantified by qPCR (see S1 Table for primer/probe sequences). Plasmid pMP218 containing a DNA sequence corresponding to nucleotides 14120–14182 (AF148805.2) was used to provide absolute quantification of viral DNA and EC50 [11].

[3] = test system: BK polyomavirus (BKPyV) Gardner strain; test: BKPyV qPCR genome copy assay in HFF cells; format: cell-based; conditions: Betapolyomavirus hominis
Method: (§2) John Cunningham polyomavirus (JCPyV) strains MAD-1 and MAD-4 and BK polyomavirus (BKPyV) Gardner strain were obtained from ATCC. COS-7 cells were obtained from ATCC and maintained according to ATCC-supplied protocols.
Primary assays for BKPyV were performed in 384-well plates containing monolayers of HFF cells. Compound dilutions ranging from 0.0032–100μM were prepared in plates containing cells which were subsequently infected at an MOI of 0.001. After a 7d incubation, total DNA was prepared using Extracta and genome copy number was quantified by qPCR using the primers and probe listed in S1 Table [18]. Plasmid pMP526 served as the DNA standard for quantification purposes. Compounds were confirmed in a similar assay in 96-well plates according to established laboratory protocols with the compounds added 1h […] to identify compounds that inhibit early stages of replication including adsorption and entry. Genome copy number was determined by methods described above.

[4] = test system: JC polyoma virus MAD-4 strain; test: microbe, parasite or virus in culture; format: cell-based; conditions: Polyomavirus sp., COS-7, JCPyV, primary screen, COS-7 cells
Method: as §2
Cytotoxicity assay was performed in a manner analogous to KSHV above. Evaluation of compounds against JCPyV virus was done in COS7 cells with the plasmid pMP508 to provide a standard curve for quantification.
Viral DNA was quantified (S1 Table) together with the plasmid pMP508 to provide a standard curve for absolute quantification. Secondary assays against JCV were also performed in COS7 cells by methods similar to those for BK virus to identify if verdinexor inhibited adsorption or entry of the virus.

HPV-11 = HPV-11 transient origin-plasmid replication assay in HEK293 cells (qPCR); format: cell-based, human papillomavirus
Method: HPV-11 and -18 were tested in HEK293 cells and primary human keratinocytes (PHK), respectively. PHKs were isolated from neonatal foreskins following circumcision according to IRB-approved protocols at UAB. They were grown in keratinocyte serum-free medium (Life Technologies) with mitomycin C-treated J2 feeder cells (Swiss 3T3 J2 fibroblasts; Elaine Fuchs, Rockefeller University). HEK 293 cells were maintained under standard conditions.
Quantification of virus was determined via transient replication of an HPV-11 replication origin-containing plasmid in HEK293 cells co-transfected with an HPV-11 replicative DNA helicase E1 and origin binding E2 protein [20]. 293 cells were cultured with test compounds added 4hr post-transfection for 2 days. Low molecular weight DNA was isolated, digested with Dpn1 and exonuclease III to eliminate unreplicated DNA. The Dpn1-resistant DNA was then subjected to qPCR analyses amplifying a small portion of the replication origin [20]. In a negative control, the E1 expression vector was omitted or cultures were treated with the inhibitor cidofovir.

Human CMV strain AD169 = test: HCMV yield reduction assay in HFF cells; format: cell-based, human cytomegalovirus; conditions: Human betaherpesvirus 5, AD169, HFF
Method: Human CMV strain AD169 was obtained from ATCC and assayed in human foreskin fibroblast cells (HFF). HFF cells were prepared at the University of Alabama at Birmingham (UAB) tissue procurement facility with IRB approval as previously described. Yield reduction assays for HCMV were performed on monolayers of HFF cells prepared in 96-well plates and incubated at 37°C for 1d to allow the cells to reach confluency. Media was then aspirated from the wells were infected at a high multiplicity of infection (MOI). At 1h following infection, the inocula were removed and the monolayers rinsed with fresh media. Compounds were then diluted in assay media consisting of MEM with Earl’s salts supplemented with 2% FBS, L-glutamine, penicillin, and gentamycin. Solutions ranging from 0.0032–10μM in primary assay and 0.032–100μM in secondary assay were added to the wells and the plates were incubated for various times, depending on the virus used and represents the length of a single replication cycle for the virus. A duplicate set of dilutions were also performed but remained uninfected to serve as a cytotoxicity control and received equal compound exposure. Supernatants from each of the infected wells were subsequently titered in a TCID50 assay to quantify the progeny virus.

[5] = human gammaherpesvirus 4, Akata

Structure (SMILES): Nc1nc2c(ncn2COCCO)c(=O)[nH]1 [acyclovir, reference compound]
SI (Selectivity Index, CC50/EC50) ([1]; EBV, primary screen, DNA hybridization): > 7 | EC50 [1, 5]: 15 µM | SI (Selectivity Index, CC50/EC50) ([2]; EBV, secondary screen, qPCR): > 13 | EC50 [2, 5]: 7.9 µM

Structure (SMILES): Nc1ccn(C[C@@H](CO)OCP(=O)(O)O)c(=O)n1 [cidofovir, reference compound]
EC50 (KSHV strain BCBL-1; primary screen): < 0.48 µM | EC50 (KSHV strain BCBL-1; secondary screen): 1.68 µM | EC50 ([3]; primary screen): 4.48 µM | EC50 ([3]; secondary screen, compound added 1h post-infection): 2.06 µM | EC50 [4]: 3.86 µM | EC50 (HPV-11; Human papillomavirus, HPV-11, primary screen): 148 µM | efficacy against HPV-11 (HPV-11; primary screen, qPCR): did not show efficacy

EC50 (Human CMV strain AD169; primary screen): 0.51 µM | EC50 (Human CMV strain AD169; secondary screen): 4 µM
Structure (SMILES): Nc1nc(O)c2ncn(COC(CO)CO)c2n1 [ganciclovir, reference compound]

Reference: publication PMC6192554, “In vitro toxicity and efficacy of verdinexor, an exportin 1 inhibitor, on opportunistic viruses affecting immunocompromised individuals” (PLoS ONE, 2018)
